Assay results taken from US8394786B2, “Quinazoline derivatives” (Janssen Pharmaceutica N.V., priority 2003, dated 2013).

Assays:
[1] = biological target: EGFR (Homo sapiens, UniProt P00533); assay: In vitro inhibition of EGFR, Flash Plate or glass-fiber filter technology (C2); type: biochemical; parameters: 0.5 μg EGFR-kinase domain/well; conditions: EGFR-kinase domain, 5.0 μM unlabeled ATP; for IC50: read-out: Kinase activity.(C2): pIC50 (converted)
In short: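 EGFR kinase domain (0.5 μg/well) phosphorylated poly(GT) with 5.0 μM ATP plus AT^33P, dose response 1·10^−6 to 1·10^−10 M. Flash Plate: biotin-poly(GT), Tris pH 8.0, 30° C, 60 min, scintillation counting. Filter: Tris pH 7.5 with MnCl2, 25° C, 10 min, 33P counted on glass-fiber filter by phosphorimaging.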

[2] = tested on: SKOV3 cells; assay: Serum starved proliferation assay on the ovarian carcinoma SKOV3 cells (C3); type: cell-based; conditions: EGF stimulated (100 ng/ml, 72 hours, serum free) or 72 hours with compounds, MTT cell viability assay; for IC50: Homo sapiens, SK-OV-3, 72 h, read-out: SKOV3 cell (C3): pIC50 (converted)
In short: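 SKOV3 cells grown 24 h in 10% FCS, then treated with compound under serum-free conditions (37 °C, 5% CO2) and stimulated 72 h with EGF at 100 ng/ml final; read-out by MTT viability. Alternative format: compound for 72 h after the same 24 h FCS step, also by MTT.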

Compound	IC50 [1]	IC50 [2]	Kinase activity.(C2): pIC50 [1]	SKOV3 cell (C3): pIC50 [2]
COc1cc2ncnc3c2cc1OCCCNC(=O)C(CC(C)C)NC(=O)Cc1ccc(Cl)cc1N3 (stereo not drawn) [Compound 68, 4,6-ethanediylidenepyrimido[4,5-b][6,1,10,13]benzoxatriazacycloheptadecine-12,15-dione, 19-chloro-8,9,10,11,13,14,16,21-octahydro-22-methoxy-13-(2-methylpropyl)-]	12.6 nM	6.31 nM		
COc1cc2ncnc3c2cc1OCCCCCNCCN(C)Cc1ccc(Cl)cc1N3 [Compound 117, 4,6-ethanediylidene-8H-pyrimido[4,5-b][6,1,12,15]benzoxatriazacyclooctadecine, 20-chloro-9,10,11,12,13,14,15,16,17,22-decahydro-23-methoxy-16-methyl-]	200 nM	3980 nM		
COc1cc2ncnc3c2cc1OCCN(C(=O)CNCCc1ccncc1)CC(=O)NCCCc1ccc(Cl)cc1N3 [Compound 46, 4,6-ethanediylidenepyrimido[4,5-b][6,1,9,12]benzoxatriazacycloheptadecin-12(13H)-one, 19-chloro-8,9,10,11,14,15,16,21-octahydro-22-methoxy-10-[[[2-(4-pyridinyl)ethyl]amino]acetyl]-]	200 nM	7940 nM		
COc1cc2ncnc3c2cc1OCCCCNCCc1ccc(Cl)cc1N3 [Compound 32, 4,6-ethanediylidenepyrimido[4,5-b][6,1,11]benzoxadiazacyclopentadecine, 17-chloro-8,9,10,11,12,13,14,19-octahydro-20-methoxy-]	3.98 nM	288 nM		
COc1cc2ncnc3c2cc1OCCN(C(=O)CN(C)CCO)CC(=O)NCCCc1ccc(Cl)cc1N3 [Compound 43, 4,6-ethanediylidenepyrimido[4,5-b][6,1,9,12]benzoxatriazacycloheptadecin-12(13H)-one, 19-chloro-8,9,10,11,14,15,16,21-octahydro-10-[[(2-hydroxyethyl)methylamino]acetyl]-22-methoxy-]	79.4 nM	501 nM		
CCN1CCOc2cc3c(ncnc3cc2OC)Nc2cc(Cl)ccc2CCCNC(=O)C1 [Compound 53, 4,6-ethanediylidenepyrimido[4,5-b][6,1,9,12]benzoxatriazacycloheptadecin-12(13H)-one, 19-chloro-10-ethyl-8,9,10,11,14,15,16,21-octahydro-22-methoxy-]	200 nM	501 nM		
COc1cc2ncnc3c2cc1OCCNC(=S)C1CCCN1Cc1cc(F)c(Cl)cc1N3 (stereo not drawn) [Compound 104, 4,6-ethanediylidenepyrimido[4,5-b]pyrrolo[2,1-k][6,1,9,12]benzoxatriazacyclopentadecine-11(8H)-thione, 19-chloro-18-fluoro-9,10,11a,12,13,14,16,21-octahydro-22-methoxy-]	1000 nM	316 nM		
4,6-ethanediylidene-8H-pyrimido[4,5-b][6,1,12,15]benzoxatriazacyclooctadecine-12,15(16H)-dione, 20-chloro-9,10,11,13,14,17,22-heptahydro-23-methoxy-14-methyl- [Compound 139]			6.4	6.8
COc1cc2ncnc3c2cc1OCCN(C(=O)CN1CCOCC1)CC(=O)NCCCc1ccc(Cl)cc1N3 [Compound 50, 4,6-ethanediylidenepyrimido[4,5-b][6,1,9,12]benzoxatriazacycloheptadecin-12(13H)-one, 19-chloro-8,9,10,11,14,15,16,21-octahydro-22-methoxy-10-(4-morpholinylacetyl)-]	79.4 nM	158 nM		
COc1cc2ncnc3c2cc1OCCCCNC(=O)C1CCCN1Cc1cc(F)c(Cl)cc1N3 (stereo not drawn) [Compound 102, 4,6-ethanediylidenepyrimido[4,5-b]pyrrolo[2,1-m][6,1,11,14]benzoxatriazacycloheptadecin-13(8H)-one, 21-chloro-20-fluoro-9,10,11,12,13a,14,15,16,18,23-decahydro-24-methoxy-]	200 nM	50.1 nM		

Next, values leading:

IC50 [1]	IC50 [2]	Kinase activity.(C2): pIC50 [1]	SKOV3 cell (C3): pIC50 [2]	Compound
501 nM	200 nM			COc1cc2ncnc3c2cc1OCCCC(=O)NC(CC(C)C)C(=O)NCc1ccc(Cl)cc1N3 (stereo not drawn) [Compound 143, 4,6-ethanediylidenepyrimido[4,5-b][6,1,11,14]benzoxatriazacycloheptadecine-11,14(8H,15H)-dione, 19-chloro-9,10,12,13,16,21-hexahydro-22-methoxy-13-(2-methylpropyl)-]
100 nM	631 nM			COc1cc2ncnc3c2cc1OCC(=O)NC(C(C)O)C(=O)NCCc1ccc(Cl)cc1N3 (stereo not drawn) [Compound 142, 4,6-ethanediylidene-8H-pyrimido[4,5-b][6,1,9,12]benzoxatriazacyclohexadecine-9,12-dione, 18-chloro-10,11,13,14,15,20-hexahydro-11-(1-hydroxyethyl)-21-methoxy-]
126 nM	1580 nM			COc1cc2ncnc3c2cc1OCC(=O)N1CC(O)CC1C(=O)NCCc1ccc(Cl)cc1N3 (stereo not drawn) [Compound 149, 1,21-ethanediylidene-5H-pyrimido[4,5-b]pyrrolo[1,2-i][6,1,9,12]benzoxatriazacyclohexadecine-13,18(19H)-dione, 7-chloro-10,11,12,13a,14,15,16-heptahydro-15-hydroxy-23-methoxy-]
39.8 nM	2510 nM			COc1cc2ncnc3c2cc1OCCCC(=O)NCCCC(=O)NCc1ccc(Cl)cc1N3 [Compound 154, 4,6-ethenopyrimido[4,5-b][6,1,11,16]benzoxatriazacyclononadecine-11,16(8H,17H)-dione, 21-chloro-9,10,12,13,14,15,18,23-octahydro-24-methoxy-]
126 nM	251 nM			COc1cc2ncnc3c2cc1OCCCCC(=O)NC(C(C)O)C(=O)NCc1ccc(Cl)cc1N3 (stereo not drawn) [Compound 147, 4,6-ethanediylidene-8H-pyrimido[4,5-b][6,1,12,15]benzoxatriazacyclooctadecine-12,15(16H)-dione, 20-chloro-9,10,11,13,14,17,22-heptahydro-14-(1-hydroxyethyl)-23-methoxy-]
316 nM	2000 nM			COc1cc2ncnc3c2cc1OCC(=O)N(C)CC(=O)NCc1ccc(Cl)cc1N3 [Compound 159, 4,6-ethanediylidenepyrimido[4,5-b][6,1,9,12]benzoxatriazacyclopentadecine-9,12(8H,13H)-dione, 17-chloro-10,11,14,19-tetrahydro-20-methoxy-10-methyl-]
251 nM	1580 nM			COc1cc2ncnc3c2cc1OCC(=O)NC(C(C)O)C(=O)NCc1ccc(Cl)cc1N3 (stereo not drawn) [Compound 127, 4,6-ethanediylidenepyrimido[4,5-b][6,1,9,12]benzoxatriazacyclopentadecine-9,12(8H,13H)-dione, 17-chloro-10,11,14,19-tetrahydro-11-(1-hydroxyethyl)-20-methoxy-]
15.8 nM	794 nM			COc1cc2ncnc3c2cc1OCCCC(=O)NCC(=O)NCc1ccc(Cl)cc1N3 [Compound 153, 4,6-ethenopyrimido[4,5-b][6,1,11,14]benzoxatriazacycloheptadecine-11,14(8H,15H)-dione, 19-chloro-9,10,12,13,16,21-hexahydro-22-methoxy-]
3160 nM	10000 nM			COc1cc2ncnc3c2cc1OCC(=O)NCC(=O)NCc1ccc(Cl)cc1N3 [Compound 151, 4,6-ethenopyrimido[4,5-b][6,1,9,12]benzoxatriazacyclopentadecine-9,12(8H,13H)-dione, 17-chloro-10,11,14,19-tetrahydro-20-methoxy-]
158 nM	50.1 nM			COc1cc2ncnc3c2cc1OCCCCC(=O)NCCC(=O)NCc1ccc(Cl)cc1N3 [Compound 162, 4,6-ethanediylidenepyrimido[4,5-b][6,1,12,16]benzoxatriazacyclononadecine-12,16(13H,17H)-dione, 21-chloro-8,9,10,11,14,15,18,23-octahydro-24-methoxy-]
100 nM	398 nM			COc1cc2ncnc3c2cc1OCCCCC(=O)NCCCC(=O)NCc1ccc(Cl)cc1N3 [Compound 163, 4,6-ethanediylidene-8H-pyrimido[4,5-b][6,1,12,17]benzoxatriazacycloeicosine-12,17(18H)-dione, 22-chloro-9,10,11,13,14,15,16,19,24-nonahydro-25-methoxy-]
5010 nM	10000 nM			COc1cc2ncnc3c2cc1OCC(=O)NCCCC(=O)NCc1ccccc1N3 [Compound 158, 4,6-ethanediylidenepyrimido[4,5-b][6,1,9,14]benzoxatriazacycloheptadecine-9,14(8H,15H)-dione, 10,11,12,13,16,21-hexahydro-22-methoxy-]
2000 nM	2510 nM			COc1cc2ncnc3c2cc1OCC(=O)N1CCCC1C(=O)NCc1ccc(Cl)cc1N3 (stereo not drawn) [Compound 126, 9,11-ethanediylidenepyrimido[4,5-b]pyrrolo[1,2-i][6,1,9,12]benzoxatriazacyclopentadecine-14,19(5H,13H)-dione, 3-chloro-16,17,18,18a,20,21-hexahydro-22-methoxy-]
158 nM	126 nM			COc1cc2ncnc3c2cc1OCCCC(=O)NC(C)(C)C(=O)NCc1ccc(Cl)cc1N3 [Compound 144, 4,6-ethanediylidenepyrimido[4,5-b][6,1,11,14]benzoxatriazacycloheptadecine-11,14(8H,15H)-dione, 19-chloro-9,10,12,13,16,21-hexahydro-22-methoxy-13,13-dimethyl-]
